pIC50: −log10 of the molar value. Active and inactive are the calls of the source. No cut-off for these calls is given here.
Assays:
[1] = system: MCF7; experiment: Cytotoxicity against human MCF7 cells after 72 hrs by alamar blue assay; assay type: functional, cell-based; conditions: MCF7, 72 h
[2] = system: PC-3; experiment: Cytotoxicity against human PC3 cells after 72 hrs by alamar blue assay; assay type: functional, cell-based; conditions: PC-3, 72 h
[3] = system: CCRF-CEM; experiment: Selectivity ratio of IC50 for taxol-resistant human CCRF-CEM cells to IC50 for human CCRF-CEM cells; assay type: functional
[4] = system: MX1; experiment: Cytotoxicity against human MX1 cells after 72 hrs by SRB assay; assay type: functional, cell-based; conditions: MX1, 72 h
[5] = system: CCRF-CEM; experiment: Cytotoxicity against taxol-resistant human CCRF-CEM cells after 72 hrs by XTT assay; assay type: functional, cell-based
[6] = system: CCRF-CEM; experiment: Selectivity ratio of IC50 for vinblastine-resistant human CCRF-CEM cells to IC50 for human CCRF-CEM cells; assay type: functional
[7] = system: HCT-116; experiment: Cytotoxicity against human HCT116 cells after 72 hrs by SRB assay; assay type: functional, cell-based; conditions: HCT-116, 72 h
[8] = Cytotoxicity against human CL1-5 cells after 72 hrs by alamar blue assay; assay type: functional, cell-based; conditions: CL1-5, 72 h
[9] = system: CCRF-CEM; experiment: Cytotoxicity against human CCRF-CEM cells after 72 hrs by XTT assay; assay type: functional, cell-based
[10] = system: CCRF-CEM; experiment: Cytotoxicity against vinblastine-resistant human CCRF-CEM cells after 72 hrs by XTT assay; assay type: functional, cell-based
[11] = Cytotoxicity against human CL1-0 cells after 72 hrs by alamar blue assay; assay type: functional, cell-based; conditions: CL1-0, 72 h
[12] = Cytotoxicity against human H1299 cells after 72 hrs by alamar blue assay; assay type: functional, cell-based; conditions: NCI-H1299, 72 h
[13] = system: Nucleic Acid; experiment: Binding affinity to pEGFP-N1 DNA assessed as formation of interstrand cross-links with DNA by alkaline gel shift assay; assay type: nucleic-acid assay

SMILES	pIC50 [1]	pIC50 [2]	Ratio IC50 [3]	pIC50 [4]	pIC50 [5]	Ratio IC50 [6]	pIC50 [7]	pIC50 [8]	pIC50 [9]	pIC50 [10]	pIC50 [11]	pIC50 [12]	Activity [13]
COc1cccc(-c2cc(NC(=O)NNc3ccc(N(CCCl)CCCl)cc3)c3cc(N4CCCC4)ccc3n2)c1	5.26	5.48	1.6	5.88	6.25	2.35	6.19	5.23	6.45	6.08	5.54	6.02	–
COc1cccc(-c2cc(NC(=O)Nc3ccc(N(CCCl)CCCl)cc3)c3cc(Cl)ccc3n2)c1	–	–	0.59	5.65	5.96	0.55	5.31	–	5.73	5.99	–	–	–
COc1cccc(-c2cc(NC(=O)NNc3ccc(N(CCCl)CCCl)cc3)c3cc(OC)ccc3n2)c1	4.81	5.19	3.9	5.46	5.67	2.94	5.46	4.96	6.26	5.79	4.93	5.22	Active
CC[C@]1(O)C[C@@H]2CN(CCc3c([nH]c4ccccc34)[C@@](C(=O)OC)(c3cc4c(cc3OC)N(C)[C@H]3[C@@](O)(C(=O)OC)[C@H](OC(C)=O)[C@]5(CC)C=CCN6CC[C@]43[C@@H]65)C2)C1 [VINBLASTINE]	–	–	106.2	–	–	679.5	–	–	–	–	–	–	–
CC(=O)O[C@H]1C(=O)[C@@]2(C)[C@H]([C@H](OC(=O)c3ccccc3)[C@]3(O)C[C@H](OC(=O)[C@H](O)[C@@H](NC(=O)c4ccccc4)c4ccccc4)C(C)=C1C3(C)C)[C@]1(OC(C)=O)CO[C@@H]1C[C@@H]2O [PACLITAXEL]	–	–	330	–	–	980	–	–	–	–	–	–	–
Cc1cc(NC(=O)Nc2ccc(N(CCCl)CCCl)cc2)c2cc(N(C)C)ccc2n1	5.67	5.70	2.9	6.74	6.51	2.3	6.52	5.60	6.97	6.62	5.76	6.15	–
COc1cccc(-c2cc(NC(=O)Nc3ccc(N(CCCl)CCCl)cc3)c3cc4c(cc3n2)OCO4)c1	–	–	0.7	4.69	5.71	0.79	5.05	–	5.55	5.65	–	–	–
O=C(NNc1ccc(N(CCCl)CCCl)cc1)Nc1cc(-c2ccccc2F)nc2ccc(N3CCCC3)cc12	6.00	6.02	1.72	5.65	6.58	2.05	6.72	6.29	6.82	6.51	6.16	6.22	–
O=C(Nc1ccc(N(CCCl)CCCl)cc1)Nc1cc(-c2ccccc2F)nc2ccc(N3CCCC3)cc12	–	–	5.22	3.94	4.40	1.62	4.35	–	5.12	4.91	–	–	–
Cc1cc(NC(=O)Nc2ccc(N(CCCl)CCCl)cc2)c2cc(N3CCCC3)ccc2n1	–	–	1.87	4.78	4.77	1.43	4.87	–	5.04	4.89	–	–	–
O=C(Nc1ccc(N(CCCl)CCCl)cc1)Nc1cc(-c2ccccc2F)nc2cc3c(cc12)OCO3	–	–	0.84	4.88	5.58	0.76	4.60	–	5.51	5.63	–	–	–
Cc1cc(NC(=O)Nc2ccc(N(CCCl)CCCl)cc2)c2cc3c(cc2n1)OCO3	5.31	5.22	2.2	6.23	6.22	2.3	6.40	5.14	6.55	6.19	5.21	5.26	–
COc1cccc(-c2cc(NC(=O)NNc3ccc(N(CCCl)CCCl)cc3)c3cc4c(cc3n2)OCO4)c1	5.48	5.53	3.51	6.13	6.13	5.43	5.86	5.31	6.68	5.95	5.54	5.69	–
O=C(Nc1ccc(N(CCCl)CCCl)cc1)Nc1cc(-c2ccccc2)nc2cc3c(cc12)OCO3	–	–	0.99	5.13	5.65	0.82	5.00	–	5.65	5.74	–	–	–
COc1cccc(-c2cc(NC(=O)Nc3ccc(N(CCCl)CCCl)cc3)c3cc(N4CCCC4)ccc3n2)c1	5.16	4.96	0.02	3.58	5.65	7.58	3.78	5.02	3.99	3.11	5.15	5.42	–
O=C(NNc1ccc(N(CCCl)CCCl)cc1)Nc1cc(-c2ccccc2F)nc2cc3c(cc12)OCO3	5.74	5.32	2.09	4.37	5.53	2.23	5.19	5.58	5.85	5.50	5.46	6.31	–
COc1ccc2nc(C)cc(NC(=O)Nc3ccc(N(CCCl)CCCl)cc3)c2c1	5.29	5.50	1	6.19	6.50	1.5	6.08	5.27	6.51	6.34	5.25	5.88	–
COc1cccc(-c2cc(NC(=O)NNc3ccc(N(CCCl)CCCl)cc3)c3cc(Cl)ccc3n2)c1	–	–	3.08	4.84	5.65	2.91	4.86	–	6.14	5.67	–	–	–
O=C(NNc1ccc(N(CCCl)CCCl)cc1)Nc1cc(-c2ccccc2)nc2cc3c(cc12)OCO3	–	–	2.22	5.99	6.24	1.92	5.69	–	6.59	6.31	–	–	–
O=C(Nc1ccc(N(CCCl)CCCl)cc1)Nc1cc(-c2ccccc2)nc2ccccc12	–	–	0.87	5.46	5.84	0.99	5.11	–	5.77	5.78	–	–	–

Reference: ChEMBL document CHEMBL1157637, “Potent DNA-directed alkylating agents: Synthesis and biological activity of phenyl N-mustard-quinoline conjugates having a urea or hydrazinecarboxamide linker” (Bioorg Med Chem, 2010)
